Measurements taken from patent US10774051B2, “6-membered heterocyclic derivatives and pharmaceutical composition comprising the same” (Shionogi & Co., Ltd., priority 2015, dated 2020).

target: human P2X7 receptor (Homo sapiens, UniProt Q99572, R270H/Y155H); experiment: Evaluation of human P2X7 receptor inhibitory activity (Yo-Pro uptake, BzATP stimulation, FLIPR TETRA); format: cell-based; conditions: 1321N1 cells stably expressing human P2X7 receptor; BzATP stimulation, Yo-Pro uptake; read-out: IC50 (antagonistic activity for the human P2X7 receptor)
Outline: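 1321N1 cells stably expressing human P2X7 (T606C/G952A SNP variant), in HBSS buffer pH 7.4-7.5 with Yo-Pro, stimulated with BzATP; compound added 8 min after agonist. Fluorescence followed for 20 min on FLIPR; max-minus-min change gave % inhibition, IC50 by logistic fit.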

Compound | IC50 [nM]
COc1cn(Cc2cc(F)cc(F)c2)c(Nc2cccc(SC)c2C)nc1=O [Compound I-0550] | 2
COc1cn(Cc2ccc(F)cc2)c(Nc2cc3sc(C)nc3cc2C)nc1=O [Compound I-0561] | 19
COc1cn(Cc2cc(F)cc(F)c2)c(Nc2cc3[nH]ncc3cc2C)nc1=O [Compound I-0597] | 20

same assay, conditions: 1321N1 cells stably expressing human P2X7 receptor; BzATP stimulation, Yo-Pro uptake; read-out: IC50 (antagonistic activity for the human P2X7 receptor), class symbol

Compound | IC50 [nM]
COc1cn(Cc2cc(C)cc(C)c2)c(Nc2cccc(Cl)c2C)nc1=O [Compound I-0521] | 500 to 1000
COc1cn(Cc2ccc(F)c(F)c2)c(Nc2cc(-c3nnco3)ccc2C)nc1=O [Compound I-0523] | 10 to 100
COc1cn(Cc2ccc(F)c(Cl)c2)c(Nc2cc(CN3CCCC3)ccc2C)nc1=O [Compound I-0524] | 100 to 500
COc1cn(Cc2ccccc2)c(Nc2cc(-n3c(C)ccc3C)ccc2C)nc1=O [Compound I-0525] | 100 to 500
COc1cn(Cc2ccc(F)c(Cl)c2)c(Nc2cc(-n3c(C)ccc3C)ccc2C)nc1=O [Compound I-0526] | 10 to 100
COc1cn(Cc2ccccc2)c(Nc2cccc3[nH]c(-c4ccccc4)cc23)nc1=O [Compound I-0527] | 500 to 1000
COc1cn(Cc2cc(F)cc(Cl)c2)c(Nc2cc(C)c(OC(F)F)cc2C)nc1=O [Compound I-0529] | 10 to 100
COc1cn(Cc2ccc(F)c(F)c2)c(Nc2ccc(OC(C)C)cc2C)nc1=O [Compound I-0530] | 10 to 100
COc1cn(Cc2cc(F)cc(F)c2)c(Nc2ccc(OC(C)C)cc2C)nc1=O [Compound I-0531] | 10 to 100
COc1cn(Cc2ccc(F)c(Cl)c2)c(Nc2ccc(OC(C)C)cc2C)nc1=O [Compound I-0532] | 10 to 100
COc1cc(Nc2nc(=O)c(F)cn2Cc2ccc(F)c(Cl)c2)c(C)cc1Cl [Compound I-0533] | < 10
COc1cc(Nc2nc(=O)c(OC)cn2Cc2cccc(Cl)c2)c(C)cc1Cl [Compound I-0534] | < 10
COc1cc(Nc2nc(=O)c(OC)cn2Cc2ccc(F)c(F)c2)c(C)cc1Cl [Compound I-0535] | < 10
COc1cc(Nc2nc(=O)c(OC)cn2Cc2ccc(F)c(Cl)c2)c(C)cc1Cl [Compound I-0536] | < 10
COc1cc(Nc2nc(=O)c(OC)cn2Cc2cc(F)cc(Cl)c2)c(C)cc1Cl [Compound I-0537] | < 10
COc1ccc(Nc2nc(=O)c(OC)cn2Cc2cc(F)cc(F)c2)c(C)c1 [Compound I-0538] | 10 to 100
COc1cn(Cc2cc(F)cc(F)c2)c(Nc2ccc(OC(F)F)cc2C)nc1=O [Compound I-0539] | 10 to 100
COc1c(C)ccc(Nc2nc(=O)c(OC)cn2Cc2cc(F)cc(F)c2)c1C [Compound I-0540] | < 10
COc1cn(Cc2cc(F)cc(F)c2)c(Nc2cc(Cl)c(Cl)cc2C)nc1=O [Compound I-0541] | 10 to 100
CCc1cc(Cl)ccc1Nc1nc(=O)c(OC)cn1Cc1cc(F)cc(F)c1 [Compound I-0542] | 10 to 100

Compound | IC50 [nM]
COc1cn(Cc2cc(F)cc(F)c2)c(Nc2ccc(N3CCOCC3)cc2C)nc1=O [Compound I-0543] | 10 to 100
COc1ccc(Cl)c(Nc2nc(=O)c(OC)cn2Cc2ccc(F)c(Cl)c2)c1 [Compound I-0544] | 10 to 100
CCc1cc(Cl)ccc1Nc1nc(=O)c(OC)cn1Cc1ccc(F)c(Cl)c1 [Compound I-0545] | < 10
COc1cn(Cc2ccc(F)c(Cl)c2)c(Nc2cc(SC(F)(F)F)ccc2C)nc1=O [Compound I-0546] | 10 to 100
COc1cn(Cc2ccc(F)c(Cl)c2)c(Nc2cc(S(C)(=O)=O)ccc2C)nc1=O [Compound I-0547] | 10 to 100
COc1cn(Cc2ccc(F)c(Cl)c2)c(Nc2ccc(N3CCOCC3)cc2C)nc1=O [Compound I-0548] | 10 to 100
COc1cn(Cc2ccc(F)c(Cl)c2)c(Nc2cc(-c3ncco3)ccc2C)nc1=O [Compound I-0549] | < 10
COc1cn(Cc2cc(F)cc(F)c2)c(Nc2cc(S(C)(=O)=O)c(C)cc2C)nc1=O [Compound I-0551] | 10 to 100
COc1cn(Cc2cc(F)cc(F)c2)c(Nc2cc(N3CCCS3(=O)=O)ccc2C)nc1=O [Compound I-0552] | 10 to 100
COc1cn(Cc2cc(F)cc(F)c2)c(Nc2cc3sc(C)nc3cc2C)nc1=O [Compound I-0553] | 10 to 100
COc1cn(Cc2cc(F)cc(F)c2)c(Nc2cc(-c3ncco3)ccc2C)nc1=O [Compound I-0554] | 10 to 100
COc1cn(Cc2ccc(F)c(F)c2)c(Nc2cc(OC(C)C)ccc2C)nc1=O [Compound I-0555] | 10 to 100
COc1cn(Cc2cc(F)cc(F)c2)c(Nc2cc(OC(C)C)ccc2C)nc1=O [Compound I-0556] | 10 to 100
COc1cn(Cc2cc(F)cc(Cl)c2)c(Nc2cc(OC(C)C)ccc2C)nc1=O [Compound I-0557] | 10 to 100
COc1cn(Cc2ccccc2)c(Nc2cc(-c3ncco3)ccc2C)nc1=O [Compound I-0558] | 10 to 100
COc1cn(Cc2cccc(F)c2)c(Nc2cc3sc(C)nc3cc2C)nc1=O [Compound I-0559] | 10 to 100
COc1cc(C)cc(Nc2nc(=O)c(OC)cn2Cc2ccc(F)cc2)c1C [Compound I-0560] | < 10
COc1cn(Cc2cccc(Cl)c2)c(Nc2cc3sc(C)nc3cc2C)nc1=O [Compound I-0562] | 10 to 100
COc1cn(Cc2cc(F)cc(F)c2)c(Nc2ccc(Cl)cc2C)nc1=O [Compound I-0563] | 10 to 100
COc1cn(Cc2ccc(F)c(Cl)c2)c(Nc2ccc(Cl)cc2C)nc1=O [Compound I-0564] | 10 to 100

Compound | IC50 [nM]
CCc1ccc(F)cc1Nc1nc(=O)c(OC)cn1Cc1ccc(F)cc1 [Compound I-0565] | 100 to 500
CCc1ccc(F)cc1Nc1nc(=O)c(OC)cn1Cc1cccc(Cl)c1 [Compound I-0566] | 10 to 100
CCc1ccc(F)cc1Nc1nc(=O)c(OC)cn1Cc1ccc(F)c(Cl)c1 [Compound I-0567] | 10 to 100
CCc1ccccc1Nc1nc(=O)c(OC)cn1Cc1cc(F)c(F)c(F)c1 [Compound I-0568] | 10 to 100
COc1cn(Cc2cc(F)c(F)c(F)c2)c(Nc2cccc(C)c2C)nc1=O [Compound I-0569] | < 10
COc1cn(Cc2cc(F)c(F)c(F)c2)c(Nc2ccc(C)cc2C)nc1=O [Compound I-0570] | < 10
COc1cn(Cc2cc(F)c(F)c(F)c2)c(Nc2cc(C)ccc2C)nc1=O [Compound I-0571] | < 10
COc1cccc(Nc2nc(=O)c(OC)cn2Cc2cc(F)c(F)c(F)c2)c1C [Compound I-0572] | < 10
CCc1cc(OC)ccc1Nc1nc(=O)c(OC)cn1Cc1cc(F)c(F)c(F)c1 [Compound I-0573] | < 10
COc1cn(Cc2cc(F)c(F)c(F)c2)c(Nc2cc(C)c(C)cc2C)nc1=O [Compound I-0574] | < 10
COc1cn(Cc2cc(F)c(F)c(F)c2)c(Nc2cc(C)c(Cl)cc2C)nc1=O [Compound I-0575] | < 10
COc1cn(Cc2cc(F)cc(Cl)c2)c(Nc2cccc(OC(F)F)c2C)nc1=O [Compound I-0576] | 10 to 100
COc1cn(Cc2cc(F)cc(Cl)c2)c(Nc2cccc(C)c2Cl)nc1=O [Compound I-0577] | 10 to 100
COc1cn(Cc2cc(F)cc(Cl)c2)c(Nc2cc(CO)c(C)cc2C)nc1=O [Compound I-0578] | < 10
COc1cn(Cc2cc(F)cc(Cl)c2)c(Nc2cccc3[nH]c(C)cc23)nc1=O [Compound I-0579] | 10 to 100
COc1cn(Cc2cc(F)cc(Cl)c2)c(Nc2cc3[nH]ncc3cc2C)nc1=O [Compound I-0580] | 10 to 100
COc1ccc(Nc2nc(=O)c(OC)cn2Cc2cc(F)c(F)c(F)c2)c(C)c1 [Compound I-0581] | < 10
COc1cn(Cc2cc(F)cc(C(F)(F)F)c2)c(Nc2cccc(Cl)c2C)nc1=O [Compound I-0582] | 100 to 500
COc1cn(Cc2ccccc2)c(Nc2ccc3[nH]ccc3c2C)nc1=O [Compound I-0583] | < 10

same assay, conditions: antagonistic activity for the human P2X7 receptor; read-out: IC50

Compound | IC50 [nM]
COc1cn(Cc2ccc(F)c(Cl)c2)c(Nc2ccc3[nH]ccc3c2C)nc1=O [Compound I-0584] | < 10
COc1cc(Nc2nc(=O)c(OC)cn2Cc2ccccc2)c(C)cc1C [Compound I-0585] | < 10
COc1cc(Nc2nc(=O)c(OC)cn2Cc2ccc(F)c(Cl)c2)c(C)cc1C [Compound I-0586] | < 10
COc1cn(Cc2ccccc2)c(Nc2cc(-c3cccn(C)c3=O)ccc2C)nc1=O [Compound I-0587] | 10 to 100
COc1cn(Cc2ccc(F)c(Cl)c2)c(Nc2cc(-c3cccn(C)c3=O)ccc2C)nc1=O [Compound I-0588] | < 10
COc1cn(Cc2cc(F)cc(F)c2)c(Nc2cc(-c3cccn(C)c3=O)ccc2C)nc1=O [Compound I-0589] | < 10
COc1cn(Cc2ccccc2)c(Nc2cc(-c3cccn(C)c3=O)c(F)cc2C)nc1=O [Compound I-0590] | 10 to 100
COc1cn(Cc2ccc(F)c(Cl)c2)c(Nc2cc(-c3cccn(C)c3=O)c(F)cc2C)nc1=O [Compound I-0591] | 10 to 100
COc1cn(Cc2cc(F)cc(F)c2)c(Nc2cc(-c3cccn(C)c3=O)c(F)cc2C)nc1=O [Compound I-0592] | 10 to 100
COc1cn(Cc2cc(F)cc(F)c2)c(Nc2cc(Cl)ccc2C)nc1=O [Compound I-0593] | 10 to 100
COc1cn(Cc2ccc(F)c(Cl)c2)c(Nc2cc(Cl)ccc2C)nc1=O [Compound I-0594] | 10 to 100
COc1cn(Cc2ccc(F)c(Cl)c2)c(Nc2ccccc2Cc2ccccn2)nc1=O [Compound I-0595] | < 10
COc1cn(Cc2cc(F)c(F)c(F)c2)c(Nc2ccc(OC(F)(F)F)cc2C)nc1=O [Compound I-0596] | 10 to 100
COc1cn(Cc2cc(F)cc(F)c2)c(Nc2cccc3[nH]c(C)cc23)nc1=O [Compound I-0598] | 10 to 100
COc1cn(Cc2cc(F)cc(F)c2)c(Nc2cc(-c3nnco3)ccc2C)nc1=O [Compound I-0599] | 10 to 100
